Measured values reported in patent US20220411495A1, “POSITIVE ALLOSTERIC MODULATORS OF THE CALCIUM-SENSING RECEPTOR” (VIB VZW, priority 2019, published 2022).

Experiments:
[1] = clinical development; cited from earlier work
[2] = target: T1, CaSR 7-transmembrane domain allosteric binding site (Homo sapiens, UniProt P41180); experiment: [3H]evocalcet radioligand displacement
T1 sequence (P41180 20-1078): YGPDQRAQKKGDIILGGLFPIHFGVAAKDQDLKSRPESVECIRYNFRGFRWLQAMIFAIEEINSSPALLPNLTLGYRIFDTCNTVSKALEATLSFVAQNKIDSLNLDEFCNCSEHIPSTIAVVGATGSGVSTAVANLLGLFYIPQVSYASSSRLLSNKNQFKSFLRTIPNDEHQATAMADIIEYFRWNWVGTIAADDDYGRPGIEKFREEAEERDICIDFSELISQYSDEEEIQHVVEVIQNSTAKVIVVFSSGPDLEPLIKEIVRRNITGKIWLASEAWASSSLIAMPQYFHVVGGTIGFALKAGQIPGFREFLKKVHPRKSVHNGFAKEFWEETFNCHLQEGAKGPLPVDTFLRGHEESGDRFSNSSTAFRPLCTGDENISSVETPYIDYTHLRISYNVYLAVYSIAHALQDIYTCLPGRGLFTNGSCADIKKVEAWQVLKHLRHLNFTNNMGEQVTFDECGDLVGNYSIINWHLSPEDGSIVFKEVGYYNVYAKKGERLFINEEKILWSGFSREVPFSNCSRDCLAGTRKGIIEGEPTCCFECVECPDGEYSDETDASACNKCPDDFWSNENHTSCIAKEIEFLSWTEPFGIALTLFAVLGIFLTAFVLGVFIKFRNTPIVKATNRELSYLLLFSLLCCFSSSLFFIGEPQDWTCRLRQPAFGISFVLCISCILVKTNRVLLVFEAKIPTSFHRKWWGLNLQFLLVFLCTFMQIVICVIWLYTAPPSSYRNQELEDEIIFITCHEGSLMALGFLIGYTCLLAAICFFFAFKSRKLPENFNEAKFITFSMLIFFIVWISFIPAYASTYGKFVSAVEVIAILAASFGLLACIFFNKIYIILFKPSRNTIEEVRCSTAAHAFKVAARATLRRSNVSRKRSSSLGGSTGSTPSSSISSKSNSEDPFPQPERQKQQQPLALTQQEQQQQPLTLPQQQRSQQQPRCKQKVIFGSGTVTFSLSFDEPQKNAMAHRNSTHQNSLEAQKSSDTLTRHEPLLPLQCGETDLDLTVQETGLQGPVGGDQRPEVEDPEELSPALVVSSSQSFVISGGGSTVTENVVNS
Protocol: For the seven different nanobodies with potencies in the 10 to 600 nM range, further characterization of their recognition site on the CaSR antigen was performed, since the identification of the nanobody binding-sites at the CaSR is key to understand their interaction and mode-of-action at a molecular and structural level, and will further aid in the development of second-generation nanobodies with enhanced pharmacological parameters. Nanobodies belonging to each family of the five different nanobody families are expected to interact with distinct regions of the CaSR.

[3] = target: T2, loss-of-function mutant CaSR Q459R (Homo sapiens, UniProt P41180, Q459R); experiment: IP1 accumulation assay, Ca2+ concentration-response curve of CaSR Q459R; format: cell-based; details: preliminary experiment; for Concentration at which the PAM effect is initiated: Ca2+ concentration-response curve; for Effect on potency for Ca2+ in CaSR Q459R: increasing PAM concentrations
T2 construct: expressed in transfected cells
T2 sequence (P41180 20-1078 Q459R): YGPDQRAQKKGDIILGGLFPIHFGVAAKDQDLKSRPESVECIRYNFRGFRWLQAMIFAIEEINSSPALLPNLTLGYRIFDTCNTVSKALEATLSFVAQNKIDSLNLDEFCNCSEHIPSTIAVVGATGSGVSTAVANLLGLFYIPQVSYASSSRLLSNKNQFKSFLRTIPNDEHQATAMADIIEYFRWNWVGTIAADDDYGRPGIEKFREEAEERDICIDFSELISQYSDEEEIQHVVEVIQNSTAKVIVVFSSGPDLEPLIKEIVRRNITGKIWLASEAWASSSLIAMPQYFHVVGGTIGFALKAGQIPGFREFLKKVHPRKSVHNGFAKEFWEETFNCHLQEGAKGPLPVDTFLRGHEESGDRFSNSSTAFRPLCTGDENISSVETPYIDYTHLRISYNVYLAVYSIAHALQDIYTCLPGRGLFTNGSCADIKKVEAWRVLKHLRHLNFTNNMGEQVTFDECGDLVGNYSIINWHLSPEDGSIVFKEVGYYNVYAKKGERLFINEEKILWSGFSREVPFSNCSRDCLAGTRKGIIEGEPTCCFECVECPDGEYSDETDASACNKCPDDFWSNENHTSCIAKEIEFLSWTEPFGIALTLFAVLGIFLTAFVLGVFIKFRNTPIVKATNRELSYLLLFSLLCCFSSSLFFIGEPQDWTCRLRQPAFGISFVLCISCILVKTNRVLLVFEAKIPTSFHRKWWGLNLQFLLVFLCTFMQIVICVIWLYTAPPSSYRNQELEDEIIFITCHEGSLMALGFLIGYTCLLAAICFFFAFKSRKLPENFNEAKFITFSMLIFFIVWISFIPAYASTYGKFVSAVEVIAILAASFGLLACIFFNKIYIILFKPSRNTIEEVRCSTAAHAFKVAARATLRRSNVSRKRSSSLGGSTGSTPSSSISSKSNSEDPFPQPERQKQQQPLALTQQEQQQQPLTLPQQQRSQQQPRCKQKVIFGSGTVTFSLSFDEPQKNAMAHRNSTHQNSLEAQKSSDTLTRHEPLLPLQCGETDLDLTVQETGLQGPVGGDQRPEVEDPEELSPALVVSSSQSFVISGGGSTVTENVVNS
Protocol: In comparison with loss-of-function mutant S170A, Q459R is a naturally occurring loss-of-function mutant that has previously been associated with familial hypocalciuric hypercalcemia (FHH). The effect of increasing concentrations of CaSR Nb4 or the clinically used PAM cinacalcet on the Ca^2+ concentration-response curve were measured with the IP1 accumulation assay. […] The PAM effect of CaSR Nb4 (0.04 μM) is initiated at a much lower concentration than for cinacalcet (5 μM).
Inositol monophosphate (IP1) accumulation was measured using the commercially available HTRF® IP1 accumulation kit (Cisbio Bioassays, Codolet, France) and an EnVision multimode plate reader (PerkinElmer, Waltham, Mass., USA). Unless stated otherwise, the cells were washed once with 100 μL/well assay buffer and stimulated for 30 minutes at 37° C. with 50 μL/well ligand(s) diluted in assay buffer supplemented with 20 mM LiCl. Following stimulation, the cells were washed once with 100 μL/well and lysed for 30 minutes at room temperature with 30 μL/well lysis buffer provided with the kit. The lysed cells were diluted 1:2 with assay buffer after which 10 μL/well was pipetted to a white 384-well OptiPlate (PerkinElmer, Waltham, Mass., USA). Next, 10 μL of a detection solution consisting of 2.5% IP1-d2 conjugate and 2.5% anti-IP1 antibody diluted in assay buffer was added to each well. Fluorophore emissions were measured after the plate was stored in the dark for 1 h. The 615/665 nm emission ratios measured upon excitation at 340 nm were converted to IP1 concentrations with an IP1 standard curve according to the manufacturer's instructions.

Row | Molecule | Oral bioavailability [1] | Displacement of [3H]evocalcet binding [2] | Concentration at which the PAM effect is initiated [3] | Effect on potency for Ca2+ in CaSR Q459R [3]
1 | COc1cccc([C@@H](C)NCCCc2ccccc2Cl)c1 [NPS R-568, reference compound] | < 5% |  |  | 
2 | C[C@@H](NCCCc1cccc(C(F)(F)F)c1)c1cccc2ccccc12 [cinacalcet, reference compound] |  | did displace | 5 µM | able to increase the potency for Ca^2+
3 | Nb4: llama-derived CaSR-specific nanobody acting as PAM, SEQ ID NO:5 (protein, CaSR Nb4) VHH: QVQLVESGGGLVQAGGSLRLSCAASGRTFSTYRMGWFRQGLGKEREFVAAITANGVRTFYTDSVKGRFTISRDNAKNTLYLQMNSLQPDDTAVYLCAARRKGIFTVQQAQDITDWDYWGQGTQVTVSS |  | do not displace | 0.04 µM | able to increase the potency for Ca^2+
